From patent publication US10487093B2, “Heterocyclic compounds, in particular 2-oxo-4,4,5,5,6,6,7,7-octahydrobenzoxazole derivatives, and their use as antibacterial compounds” (priority 2016, dated 2019)

Tests used:
[1] = system: E. coli MG1655; experiment: MIC, broth microdilution (CLSI) versus planktonic bacteria; assay type: cell-based, Escherichia coli; conditions: Escherichia coli, MG1655, read-out: MIC, Ec MG1655 WT
[2] = system: Neisseria meningitidis ATCC 13090; experiment: as above; assay type: cell-based; conditions: ATCC13090, 16-20 h, mode of three independent experiments
[3] = system: Acinetobacter baumannii ATCC 19606; experiment: as above; assay type: cell-based; conditions: ATCC19606; Acinetobacter baumannii ATCC 19606; 16-20 h; mode of three independent experiments; read-out: MIC, Ab ATCC 19606
[4] = system: Mycobacterium smegmatis ATCC 19420; experiment: as above; assay type: cell-based; conditions: Mycolicibacterium smegmatis, ATCC19420, 16-20 h, mode of three independent experiments, read-out: MIC, Ms ATCC 19420
[5] = system: Gram-negative and Gram-positive bacterial strains; assay type: cell-based; conditions: strain panel of Table 1
[6] = system: human hepatic cell line (HepG2 ATCC HB-8065); experiment: Human cell viability assay (CellTiter-Glo); conditions: Homo sapiens, HepG2, 24 h, read-out: IC50 (μg/mL) HepG2
[7] = system: Staphylococcus aureus ATCC 29213; experiment: MIC, broth microdilution (CLSI) versus planktonic bacteria; assay type: cell-based; conditions: ATCC29213; Staphylococcus aureus ATCC 29213; 16-20 h; mode of three independent experiments; read-out: MIC, Sa ATCC 29213
[8] = system: E. coli ATCC BAA-2452; experiment: as above; assay type: cell-based; conditions: Escherichia coli ATCC BAA-2452; 16-20 h; mode of three independent experiments; read-out: MIC, Ec ATCC BAA 2452
[9] = system: Enterococcus faecalis ATCC 29212; experiment: as above; assay type: cell-based; conditions: ATCC29212, 16-20 h, mode of three independent experiments, read-out: MIC, Ef ATCC 29212
[10] = system: Enterococcus faecium ATCC 19434; experiment: as above; assay type: cell-based; conditions: ATCC19434, 16-20 h, mode of three independent experiments, read-out: MIC, Efm ATCC 19434
[11] = system: Enterobacter cloacae NCTC 13406; experiment: as above; assay type: cell-based; conditions: NCTC13406; Enterobacter cloacae NCTC 13406; 16-20 h; mode of three independent experiments; read-out: MIC, Ecl NCTC 13406
[12] = system: Acinetobacter baumannii NCTC 13420; experiment: as above; assay type: cell-based; conditions: NCTC13420; Acinetobacter baumannii NCTC 13420; 16-20 h; mode of three independent experiments; read-out: MIC, Ab NCTC 13420
[13] = system: Escherichia coli ATCC 25922; experiment: as above; assay type: cell-based; conditions: ATCC25922; Escherichia coli ATCC 25922; 16-20 h; mode of three independent experiments; read-out: MIC, Ec ATCC 25922
[14] = system: Haemophilus influenzae ATCC 49247; experiment: as above; assay type: cell-based; conditions: ATCC49247; Haemophilus influenzae ATCC 49247; 16-20 h; mode of three independent experiments; read-out: MIC, Hi ATCC 49247
[15] = system: Streptococcus pneumoniae ATCC 49619; experiment: as above; assay type: cell-based; conditions: ATCC49619; Streptococcus pneumoniae ATCC 49619; 16-20 h; mode of three independent experiments; read-out: MIC, Sp ATCC 49619
[16] = system: E. coli MG1655 D87G; assay type: cell-based, Escherichia coli; conditions: compared to the isogenic parent strain E. coli MG1655; D87G mutation on DNA gyrase subunit GyrA
[17] = system: E. coli NCTC 13476; experiment: MIC, broth microdilution (CLSI) versus planktonic bacteria; assay type: cell-based; conditions: NCTC13476; Escherichia coli NCTC 13476; 16-20 h; mode of three independent experiments; read-out: MIC, Ec NCTC 13476
[18] = system: Pseudomonas aeruginosa ATCC 27853; experiment: as above; assay type: cell-based; conditions: ATCC27853; Pseudomonas aeruginosa ATCC 27853; 16-20 h; mode of three independent experiments; read-out: MIC, Pa ATCC 27853
[19] = system: fluoroquinolone-resistant Enterococcus faecium ATCC 700221; experiment: as above; assay type: cell-based; conditions: ATCC700221, 16-20 h, mode of three independent experiments, read-out: MIC, Efm ATCC 700221
[20] = system: E. coli MG1655 S83L; assay type: cell-based, Escherichia coli; conditions: compared to the isogenic parent strain E. coli MG1655; S83L mutation on DNA gyrase subunit GyrA
[21] = system: Yersinia pestis CO92; experiment: microbe, parasite or virus in culture; assay type: cell-based; conditions: CO92, read-out: MIC, Yersinia pestis CO92
[22] = system: Burkholderia mallei China 7; experiment: microbe, parasite or virus in culture; assay type: cell-based; conditions: CHINA7, 24 h, read-out: MIC, Burkholderia mallei China 7
[23] = system: Burkholderia pseudomallei 1026b; experiment: microbe, parasite or virus in culture; assay type: cell-based; conditions: 24 h, read-out: MIC, Burkholderia pseudomallei 1026b
[24] = system: Burkholderia pseudomallei DD503; experiment: microbe, parasite or virus in culture; assay type: cell-based; conditions: DD503, 24 h, read-out: MIC, Burkholderia pseudomallei DD503
[25] = system: Burkholderia pseudomallei K96243; experiment: microbe, parasite or virus in culture; assay type: cell-based; conditions: K96243, 24 h, read-out: MIC, Burkholderia pseudomallei K96243
[26] = system: Bacillus anthracis Ames; experiment: microbe, parasite or virus in culture; assay type: cell-based; conditions: 24 h, read-out: MIC, Bacillus anthracis Ames
[27] = system: Francisella tularensis SCHU S4; experiment: microbe, parasite or virus in culture; assay type: cell-based; conditions: SCHUS4, 38 h, read-out: MIC, Francisella tularensis SCHU S4

COc1ccc2ccc(=O)n(CCN[C@@H]3CC[C@@H]4[C@@H](C3)OC(=O)N4c3ccc4c(n3)NC(=O)CO4)c2n1 [Compound 1, 1-(2-{[(3aR,6R,7aR)-2-oxo-3-{3-oxo-2H,3H,4H-pyrido[3,2-b][1,4]oxazin-6-yl}-octahydro-1,3-benzoxazol-6-yl]amino}ethyl)-7-methoxy-1,2-dihydro-1,8-naphthyridin-2-one]
excellent activity: activity against both Gram-negative and Gram-positive bacteria (in words) [5]
> 100 µg/mL: IC50 [6]
< 1 µg/mL: MIC [1] | MIC [2] | MIC [3] | MIC [4] | MIC [7] | MIC [8] | MIC [9] | MIC [10] | MIC [11] | MIC [12] | MIC [13] | MIC [14] | MIC [15] | MIC [17] | MIC [18] | MIC [19]
1 fold: Fold increase in MIC, E. coli MG1655 D87G [16] | Fold increase in MIC, E. coli MG1655 S83L [20]

COc1ccc2ccc(=O)n(CCCN[C@@H]3CC[C@@H]4[C@@H](C3)OC(=O)N4c3ccc4c(n3)NC(=O)CO4)c2n1 [Compound 76, 1-(3-{[(3aR,6R,7aR)-2-oxo-3-{3-oxo-2H,3H,4H-pyrido[3,2-b][1,4]oxazin-6-yl}-octahydro-1,3-benzoxazol-6-yl]amino}propyl)-7-methoxy-1,2-dihydro-1,8-naphthyridin-2-one]
< 1 µg/mL: MIC [1] | MIC [3] | MIC [7] | MIC [8] | MIC [9] | MIC [10] | MIC [11] | MIC [12] | MIC [13] | MIC [14] | MIC [15] | MIC [17] | MIC [18] | MIC [19]
excellent activity: activity against both Gram-negative and Gram-positive bacteria (in words) [5]
2 fold: Fold increase in MIC, E. coli MG1655 D87G [16] | Fold increase in MIC, E. coli MG1655 S83L [20]
10 to 100 µg/mL: IC50 [6]

C[C@H]1c2cccc(O)c2C(=O)C2=C(O)[C@]3(O)C(=O)C(C(N)=O)=C(O)[C@@H](N(C)C)[C@@H]3[C@@H](O)[C@@H]21 [DOX, doxycycline, reference compound]
< 1 µg/mL: MIC [22] | MIC [26] | MIC [27]
1 to 4 µg/mL: MIC [21] | MIC [23] | MIC [24] | MIC [25]

COc1ncc2ccc(=O)n(CCN[C@@H]3CC[C@@H]4[C@@H](C3)OC(=O)N4c3ccc4c(n3)NC(=O)CO4)c2n1 [Compound 2, (3aR,6R,7aR)-6-[(2-{2-methoxy-7-oxo-7H,8H-pyrido[2,3-d]pyrimidin-8-yl}ethyl)amino]-3-(3-oxo-2H,3H,4H-pyrido[3,2-b][1,4]oxazin-6-yl}-octahydro-1,3-benzoxazol-2-one]
1 to 4 µg/mL: MIC [22] | MIC [23] | MIC [24] | MIC [25] | MIC [27]
1 fold: Fold increase in MIC, E. coli MG1655 D87G [16] | Fold increase in MIC, E. coli MG1655 S83L [20]
> 100 µg/mL: IC50 [6]
< 1 µg/mL: MIC [1] | MIC [2] | MIC [3] | MIC [4] | MIC [21] | MIC [7] | MIC [8] | MIC [11] | MIC [12] | MIC [13] | MIC [14] | MIC [15] | MIC [26]
1 to 10 µg/mL: MIC [17] | MIC [18]
